{"source": "ChEMBL document CHEMBL5674860", "about": "“Optimized Dual-Glo Assay to identify co-culture-induced drug vulnerabilities in 3D CRC models” (2024)", "format_in_all_cases": "functional, Homo sapiens", "parameters_in_all_cases": "dose or concentration left out as unconfirmed", "key": {"[1]": {"tested_on": "Colon cancer organoid", "test": "Optimized Dual-Glo assay to identify co-culture induced drug vulnerabilities using donated chemical probes and chemogenomics kinase set in O06 CRC organoid and F06 CAF mono and co-culture. […] Cell viability is reported both mono and co-culture models."}, "[2]": {"tested_on": "Colon cancer organoid", "test": "Optimized Dual-Glo assay to identify co-culture induced drug vulnerabilities using donated chemical probes and chemogenomics kinase set in O14 CRC organoid and F14 CAF mono and co-culture. […] Cell viability is reported both mono and co-culture models."}, "[3]": {"tested_on": "Colon cancer organoid", "test": "Optimized Dual-Glo assay to identify co-culture induced drug vulnerabilities using donated chemical probes and chemogenomics kinase set in O20 CRC organoid and F20 CAF mono and co-culture. […] Cell viability is reported both mono and co-culture models."}, "[4]": {"conditions": "Culture type Co-Culture, Transduced with Lucferase2-P2A-EGFP lentivirus"}, "[5]": {"conditions": "Culture type Co-Culture, Transduced with Renilla-dsRed lentivirus"}, "[6]": {"conditions": "Culture type Mono-Culture, Transduced with Lucferase2-P2A-EGFP lentivirus"}, "[7]": {"conditions": "Culture type Mono-Culture, Transduced with Renilla-dsRed lentivirus"}}, "data": [{"smiles": "CN1CCN(Cc2ccc(Nc3ncc(Cl)c(Nc4ccccc4S(=O)(=O)N(C)C)n3)cc2)CC1", "note": "[DUBERMATINIB]", "values": [{"measurement": "Cell Viability", "setting": "[1]; [4]", "result": 0.5937, "unit": "%"}, {"measurement": "Cell Viability", "setting": "[1]; [5]", "result": 0.7151, "unit": "%"}, {"measurement": "Cell Viability", "setting": "[1]; [6]", "result": 0.6913, "unit": "%"}, {"measurement": "Cell Viability", "setting": "[1]; [7]", "result": 2.891, "unit": "%"}, {"measurement": "Cell Viability", "setting": "[2]; [4]", "result": 0.6117, "unit": "%"}, {"measurement": "Cell Viability", "setting": "[2]; [5]", "result": 1.021, "unit": "%"}, {"measurement": "Cell Viability", "setting": "[2]; [6]", "result": 1.267, "unit": "%"}, {"measurement": "Cell Viability", "setting": "[2]; [7]", "result": 1.499, "unit": "%"}, {"measurement": "Cell Viability", "setting": "[3]; [4]", "result": 1.045, "unit": "%"}, {"measurement": "Cell Viability", "setting": "[3]; [5]", "result": 16.1981, "unit": "%"}, {"measurement": "Cell Viability", "setting": "[3]; [6]", "result": 1.218, "unit": "%"}, {"measurement": "Cell Viability", "setting": "[3]; [7]", "result": 12.0094, "unit": "%"}]}, {"smiles": "Cn1cc(C2=C(c3cn(C4CCN(Cc5ccccn5)CC4)c4ccccc34)C(=O)NC2=O)c2ccccc21", "note": "[ENZASTAURIN]", "values": [{"measurement": "Cell Viability", "setting": "[1]; [4]", "result": 65.6638, "unit": "%"}, {"measurement": "Cell Viability", "setting": "[1]; [5]", "result": 92.7001, "unit": "%"}, {"measurement": "Cell Viability", "setting": "[1]; [6]", "result": 58.602, "unit": "%"}, {"measurement": "Cell Viability", "setting": "[1]; [7]", "result": 101.572, "unit": "%"}, {"measurement": "Cell Viability", "setting": "[2]; [4]", "result": 77.4844, "unit": "%"}, {"measurement": "Cell Viability", "setting": "[2]; [5]", "result": 94.2381, "unit": "%"}, {"measurement": "Cell Viability", "setting": "[2]; [6]", "result": 86.5336, "unit": "%"}, {"measurement": "Cell Viability", "setting": "[2]; [7]", "result": 83.0179, "unit": "%"}, {"measurement": "Cell Viability", "setting": "[3]; [4]", "result": 54.9568, "unit": "%"}, {"measurement": "Cell Viability", "setting": "[3]; [5]", "result": 78.6109, "unit": "%"}, {"measurement": "Cell Viability", "setting": "[3]; [6]", "result": 53.3905, "unit": "%"}, {"measurement": "Cell Viability", "setting": "[3]; [7]", "result": 66.2903, "unit": "%"}]}, {"smiles": "C[C@H](NC(=O)Nc1cc2[nH]ncc2c(CO)n1)c1ccccn1", "note": "[ERKi-NC]", "values": [{"measurement": "Cell Viability", "setting": "[1]; [4]", "result": 88.473, "unit": "%"}, {"measurement": "Cell Viability", "setting": "[1]; [5]", "result": 87.7291, "unit": "%"}, {"measurement": "Cell Viability", "setting": "[1]; [6]", "result": 101.937, "unit": "%"}, {"measurement": "Cell Viability", "setting": "[1]; [7]", "result": 116.172, "unit": "%"}, {"measurement": "Cell Viability", "setting": "[2]; [4]", "result": 88.9935, "unit": "%"}, {"measurement": "Cell Viability", "setting": "[2]; [5]", "result": 102.074, "unit": "%"}, {"measurement": "Cell Viability", "setting": "[2]; [6]", "result": 55.928, "unit": "%"}, {"measurement": "Cell Viability", "setting": "[2]; [7]", "result": 92.432, "unit": "%"}, {"measurement": "Cell Viability", "setting": "[3]; [4]", "result": 108.541, "unit": "%"}, {"measurement": "Cell Viability", "setting": "[3]; [5]", "result": 124.126, "unit": "%"}, {"measurement": "Cell Viability", "setting": "[3]; [6]", "result": 136.018, "unit": "%"}, {"measurement": "Cell Viability", "setting": "[3]; [7]", "result": 90.7734, "unit": "%"}]}, {"smiles": "C[C@@H](NC(=O)Nc1cc2[nH]ncc2c(CO)n1)c1ccccc1", "note": "[ERKi]", "values": [{"measurement": "Cell Viability", "setting": "[1]; [4]", "result": 117.766, "unit": "%"}, {"measurement": "Cell Viability", "setting": "[1]; [5]", "result": 104.277, "unit": "%"}, {"measurement": "Cell Viability", "setting": "[1]; [6]", "result": 23.2555, "unit": "%"}, {"measurement": "Cell Viability", "setting": "[1]; [7]", "result": 96.7542, "unit": "%"}, {"measurement": "Cell Viability", "setting": "[2]; [4]", "result": 33.887, "unit": "%"}, {"measurement": "Cell Viability", "setting": "[2]; [5]", "result": 108.528, "unit": "%"}, {"measurement": "Cell Viability", "setting": "[2]; [6]", "result": 11.5857, "unit": "%"}, {"measurement": "Cell Viability", "setting": "[2]; [7]", "result": 66.9878, "unit": "%"}, {"measurement": "Cell Viability", "setting": "[3]; [4]", "result": 50.0756, "unit": "%"}, {"measurement": "Cell Viability", "setting": "[3]; [5]", "result": 135.339, "unit": "%"}, {"measurement": "Cell Viability", "setting": "[3]; [6]", "result": 64.2382, "unit": "%"}, {"measurement": "Cell Viability", "setting": "[3]; [7]", "result": 68.0141, "unit": "%"}]}, {"smiles": "O=C(Nc1nc2cccc(-c3ccc(CN4CCS(=O)(=O)CC4)cc3)n2n1)C1CC1", "note": "[FILGOTINIB]", "values": [{"measurement": "Cell Viability", "setting": "[1]; [4]", "result": 100.525, "unit": "%"}, {"measurement": "Cell Viability", "setting": "[1]; [5]", "result": 92.8016, "unit": "%"}, {"measurement": "Cell Viability", "setting": "[1]; [6]", "result": 121.161, "unit": "%"}, {"measurement": "Cell Viability", "setting": "[1]; [7]", "result": 92.1067, "unit": "%"}, {"measurement": "Cell Viability", "setting": "[2]; [4]", "result": 124.013, "unit": "%"}, {"measurement": "Cell Viability", "setting": "[2]; [5]", "result": 111.823, "unit": "%"}, {"measurement": "Cell Viability", "setting": "[2]; [6]", "result": 119.446, "unit": "%"}, {"measurement": "Cell Viability", "setting": "[2]; [7]", "result": 102.655, "unit": "%"}, {"measurement": "Cell Viability", "setting": "[3]; [4]", "result": 112.545, "unit": "%"}, {"measurement": "Cell Viability", "setting": "[3]; [5]", "result": 86.0918, "unit": "%"}, {"measurement": "Cell Viability", "setting": "[3]; [6]", "result": 106.088, "unit": "%"}, {"measurement": "Cell Viability", "setting": "[3]; [7]", "result": 87.0807, "unit": "%"}]}, {"smiles": "CN(C(=O)c1ccccc1)c1cc(N(C)c2ccc3c(c2)CCc2ccc(C(=O)NCCN4CCOCC4)cc2C3=O)ccc1F", "note": "[FM-743]", "values": [{"measurement": "Cell Viability", "setting": "[1]; [4]", "result": 67.0526, "unit": "%"}, {"measurement": "Cell Viability", "setting": "[1]; [5]", "result": 69.6878, "unit": "%"}, {"measurement": "Cell Viability", "setting": "[1]; [6]", "result": 72.1659, "unit": "%"}, {"measurement": "Cell Viability", "setting": "[1]; [7]", "result": 109.641, "unit": "%"}, {"measurement": "Cell Viability", "setting": "[2]; [4]", "result": 83.789, "unit": "%"}, {"measurement": "Cell Viability", "setting": "[2]; [5]", "result": 122.182, "unit": "%"}, {"measurement": "Cell Viability", "setting": "[2]; [6]", "result": 115.906, "unit": "%"}, {"measurement": "Cell Viability", "setting": "[2]; [7]", "result": 98.7995, "unit": "%"}, {"measurement": "Cell Viability", "setting": "[3]; [4]", "result": 87.5807, "unit": "%"}, {"measurement": "Cell Viability", "setting": "[3]; [5]", "result": 153.202, "unit": "%"}, {"measurement": "Cell Viability", "setting": "[3]; [6]", "result": 104.972, "unit": "%"}, {"measurement": "Cell Viability", "setting": "[3]; [7]", "result": 128.329, "unit": "%"}]}, {"smiles": "O=C(NCCN1CCOCC1)c1ccc2c(c1)C(=O)c1ccc(Nc3ccc(F)c(NC(=O)c4ccccc4)c3)cc1CC2", "note": "[FS-694]", "values": [{"measurement": "Cell Viability", "setting": "[1]; [4]", "result": 67.8661, "unit": "%"}, {"measurement": "Cell Viability", "setting": "[1]; [5]", "result": 67.282, "unit": "%"}, {"measurement": "Cell Viability", "setting": "[1]; [6]", "result": 66.9088, "unit": "%"}, {"measurement": "Cell Viability", "setting": "[1]; [7]", "result": 83.7797, "unit": "%"}, {"measurement": "Cell Viability", "setting": "[2]; [4]", "result": 102.563, "unit": "%"}, {"measurement": "Cell Viability", "setting": "[2]; [5]", "result": 98.243, "unit": "%"}, {"measurement": "Cell Viability", "setting": "[2]; [6]", "result": 144.079, "unit": "%"}, {"measurement": "Cell Viability", "setting": "[2]; [7]", "result": 81.8914, "unit": "%"}, {"measurement": "Cell Viability", "setting": "[3]; [4]", "result": 66.004, "unit": "%"}, {"measurement": "Cell Viability", "setting": "[3]; [5]", "result": 119.038, "unit": "%"}, {"measurement": "Cell Viability", "setting": "[3]; [6]", "result": 94.4809, "unit": "%"}, {"measurement": "Cell Viability", "setting": "[3]; [7]", "result": 79.2545, "unit": "%"}]}]}
